The values that follow come from US20150274719A1, “AMINO-SUBSTITUTED IMIDAZO[1,2-A]PYRIDINECARBOXAMIDES AND THEIR USE” (BAYER PHARMA AKTIENGESELLSCHAFT, priority 2012, published 2015).

The test addresses T1, recombinant guanylate cyclase reporter cell line (Rattus norvegicus, UniProt P19686+P20595).
T1 construct: expressed in transfected cells; host or cells: recombinant reporter cell line
T1 sequence (P19686 1-690): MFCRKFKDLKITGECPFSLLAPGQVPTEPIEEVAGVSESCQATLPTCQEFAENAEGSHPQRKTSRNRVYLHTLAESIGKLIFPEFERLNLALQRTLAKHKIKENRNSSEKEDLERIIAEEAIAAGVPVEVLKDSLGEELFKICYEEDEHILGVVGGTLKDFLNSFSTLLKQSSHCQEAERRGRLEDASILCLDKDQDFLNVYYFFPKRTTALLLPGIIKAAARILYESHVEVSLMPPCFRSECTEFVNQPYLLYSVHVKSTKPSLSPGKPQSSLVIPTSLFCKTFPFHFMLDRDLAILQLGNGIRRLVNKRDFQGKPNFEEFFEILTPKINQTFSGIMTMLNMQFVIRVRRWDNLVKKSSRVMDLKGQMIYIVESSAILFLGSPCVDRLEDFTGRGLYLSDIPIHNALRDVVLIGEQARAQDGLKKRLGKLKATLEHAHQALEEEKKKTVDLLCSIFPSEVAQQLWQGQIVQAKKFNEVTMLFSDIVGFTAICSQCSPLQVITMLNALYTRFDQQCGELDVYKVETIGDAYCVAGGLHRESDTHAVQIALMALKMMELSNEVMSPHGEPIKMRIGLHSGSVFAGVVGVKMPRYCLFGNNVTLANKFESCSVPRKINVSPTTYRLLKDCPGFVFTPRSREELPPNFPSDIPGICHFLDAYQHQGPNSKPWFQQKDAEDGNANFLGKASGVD
T1 sequence (P20595 1-619): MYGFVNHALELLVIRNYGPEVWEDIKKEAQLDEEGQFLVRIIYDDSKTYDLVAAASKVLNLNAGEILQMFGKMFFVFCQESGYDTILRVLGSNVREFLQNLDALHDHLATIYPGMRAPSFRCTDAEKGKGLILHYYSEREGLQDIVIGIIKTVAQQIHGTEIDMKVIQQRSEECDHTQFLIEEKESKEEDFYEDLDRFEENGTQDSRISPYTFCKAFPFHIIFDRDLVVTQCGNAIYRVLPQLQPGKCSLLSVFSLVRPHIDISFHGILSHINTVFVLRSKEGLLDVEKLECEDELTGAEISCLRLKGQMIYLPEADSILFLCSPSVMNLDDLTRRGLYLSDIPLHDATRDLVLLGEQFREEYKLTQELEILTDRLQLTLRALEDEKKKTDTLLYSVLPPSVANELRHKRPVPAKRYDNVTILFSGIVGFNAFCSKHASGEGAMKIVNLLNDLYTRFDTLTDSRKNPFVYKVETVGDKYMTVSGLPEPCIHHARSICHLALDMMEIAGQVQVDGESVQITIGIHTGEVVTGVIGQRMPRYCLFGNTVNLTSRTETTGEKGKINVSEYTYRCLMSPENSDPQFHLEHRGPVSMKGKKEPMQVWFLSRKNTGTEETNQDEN
Description: Action on recombinant guanylate cyclase reporter cell line. It counts as cell-based. The settings on record: in some cases mean values from individual determinations. An outline of the steps:
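Each compound is applied to a cell line engineered with a reporter for recombinant guanylate cyclase. The minimal effective concentration is then noted, in part as a mean across separate determinations.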
Take `Cc1nc2c(OCC3CCCCC3)cccn2c1C(=O)NC(CN)c1ccc(F)c(F)c1` (single isomer, unassigned) [Example 178, ent-N-[2-Amino-1-(3,4-difluorophenyl)ethyl]-8-(cyclohexylmethoxy)-2-methylimidazo[1,2-a]-pyridine-3-carboxamide]: the “MEC (minimal effective concentration)” value is 0.30 µM.

In the case of `Cc1nc2c(OCc3c(F)cccc3F)cccn2c1C(=O)NC(CN)CC(F)(F)F` (single isomer, unassigned; enantiomer b) [Example 3, ent-N-(1-Amino-4,4,4-trifluorobutan-2-yl)-8-[(2,6-difluorobenzyl)oxy]-2-methylimidazo[1,2-a]-pyridine-3-carboxamide (Enantiomer B)], the “MEC (minimal effective concentration)” value worked out at 0.30 µM.

As to `Cc1cc(OCc2c(F)cccc2F)c2nc(C)c(C(=O)NCC(N)c3csc4ccccc34)n2c1` (racemic) [Example 373, rac-N-[2-amino-2-(1-benzothiophen-3-yl)ethyl]-8-[(2,6-difluorobenzyl)oxy]-2,6-dimethylimidazo[1,2-a]pyridine-3-carboxamide], the “MEC (minimal effective concentration)” value amounted to 3.00 µM.

For `CCOC(=O)c1cccc(C(CN)NC(=O)c2c(C)nc3c(OCc4c(F)cccc4F)cc(C)cn23)n1` (centres unmarked) [Example 397], the “MEC (minimal effective concentration)” value worked out at 1.00 µM.

Regarding `COCC(N)CNC(=O)c1c(C)nc2c(OCc3c(F)cccc3F)cccn12` (single isomer, unassigned; enantiomer b) [Example 248, ent-N-(2-Amino-3-methoxypropyl)-8-[(2,6-difluorobenzyl)oxy]-2-methylimidazo[1,2-a]pyridine-3-carboxamide (Enantiomer B)], the “MEC (minimal effective concentration)” value was found to be 1.00 µM.

Turning to `Cc1cc(OCc2c(F)cccc2F)c2nc(C)c(C(=O)NCC(C)(N)CO)n2c1` (single isomer, unassigned; enantiomer b) [Example 269, ent-N-(2-Amino-3-hydroxy-2-methylpropyl)-8-[(2,6-difluorobenzyl)oxy]-2,6-dimethylimidazo-[1,2-a]pyridine-3-carboxamide (Enantiomer B)], the “MEC (minimal effective concentration)” value turned out to be 0.65 µM.

Consider `Cc1cc(OCc2c(F)cccc2F)c2nc(C)c(C(=O)NC(CN)c3cccc(OC(F)F)c3)n2c1` (racemic) [Example 392, rac-N-{2-amino-1-[3-(difluoromethoxy)phenyl]ethyl}-8-[(2,6-difluorobenzyl)oxy]-2,6-dimethylimidazo[1,2-a]pyridine-3-carboxamide], for which the “MEC (minimal effective concentration)” value worked out at 1.00 µM.

Take `Cc1nc2c(OCc3c(F)cccc3F)cc(Cl)cn2c1C(=O)NCCN1CCC(F)(F)CC1` [Example 151, 6-chloro-8-[(2,6-difluorobenzyl)oxy]-N-[2-(4,4-difluoropiperidin-1-yl)ethyl]-2-methylimidazo[1,2-a]pyridine-3-carboxamide]: the “MEC (minimal effective concentration)” value is 0.10 µM.

Take `Cc1nc2c(OCc3c(F)cccc3F)cc(Cl)cn2c1C(=O)NCCN1CC(N2CCCC2)C1` [Example 156, 6-chloro-8-[(2,6-difluorobenzyl)oxy]-2-methyl-N-{2-[3-(pyrrolidin-1-yl)azetidin-1-yl]ethyl}-imidazo[1,2-a]pyridine-3-carboxamide]: the “MEC (minimal effective concentration)” value was found to be 3.00 µM.

`CCOCC(CN)NC(=O)c1c(C)nc2c(OCc3c(F)cccc3F)cccn12` (single isomer, unassigned) [Example 56, ent-N-(1-amino-3-ethoxypropan-2-yl)-8-[(2,6-difluorobenzyl)oxy]-2-methylimidazo[1,2-a]-pyridine-3-carboxamide]: the “MEC (minimal effective concentration)” value worked out at 1.00 µM.

`Cc1nc2c(OCc3c(F)cccc3F)cccn2c1C(=O)NCCN1CCN(C)CC1` [Example 133, 8-[(2,6-difluorobenzyl)oxy]-2-methyl-N-[2-(4-methylpiperazin-1-yl)ethyl]imidazo[1,2-a]-pyridine-3-carboxamide]: the “MEC (minimal effective concentration)” value came to 3.00 µM.

`Cc1cc(OCc2c(F)cccc2F)c2nc(C)c(C(=O)NC3CNc4ccccc4C3)n2c1` (racemic) [Example 76, rac-8-[(2,6-difluorobenzyl)oxy]-2,6-dimethyl-N-(1,2,3,4-tetrahydroquinolin-3-yl)imidazo[1,2-a]-pyridine-3-carboxamide]: the “MEC (minimal effective concentration)” value was 0.30 µM.

Consider `Cc1cc(OCc2c(F)cccc2F)c2nc(C)c(C(=O)NC(CN)c3csc4ccccc34)n2c1` (racemic) [Example 389, rac-N-[2-amino-1-(1-benzothiophen-3-yl)ethyl]-8-[(2,6-difluorobenzyl)oxy]-2,6-dimethylimidazo[1,2-a]pyridine-3-carboxamide], for which the “MEC (minimal effective concentration)” value is 1.00 µM.

Consider `Cc1cc(OCc2c(F)cccc2F)c2nc(C)c(C(=O)N[C@@H]3CCCC[C@H]3N)n2c1` [Example 251, ent-N-[(1R,2R)-2-Aminocyclohexyl]-8-[(2,6-difluorobenzyl)oxy]-2,6-dimethylimidazo[1,2-a]-pyridine-3-carboxamide], for which the “MEC (minimal effective concentration)” value was 3.00 µM.

Turning to `Cc1cc(OCc2c(F)cccc2F)c2nc(C)c(C(=O)N[C@H]3C[C@H]4CN(C)CCN4C3)n2c1` [Example 314, 8-[(2,6-Difluorobenzyl)oxy]-2,6-dimethyl-N-[(7S,8aS)-2-methyloctahydropyrrolo[1,2-a]pyrazin-7-yl]imidazo[1,2-a]pyridine-3-carboxamide], the “MEC (minimal effective concentration)” value turned out to be 0.30 µM.

As for `Cc1nc2c(OCc3c(F)cccc3F)cccn2c1C(=O)NC1CC2CCCC(C1)N2` (centres unmarked) [Example 27, N-(9-azabicyclo[3.3.1]non-3-yl)-8-[(2,6-difluorobenzyl)oxy]-2-methylimidazo[1,2-a]-pyridine-3-carboxamide], the “MEC (minimal effective concentration)” value amounted to 1.00 µM.

On to `Cc1cc(OCc2c(F)cccc2F)c2nc(C)c(C(=O)NCC(N)c3csc(C)n3)n2c1` (racemic) [Example 415, rac-N-[2-amino-2-(2-methyl-1,3-thiazol-4-yl)ethyl]-8-[(2,6-difluorobenzyl)oxy]-2,6-dimethylimidazo[1,2-a]pyridine-3-carboxamide triformate], for which the “MEC (minimal effective concentration)” value was determined as 5.5 µM.

Consider `Cc1cc(OCc2c(F)cccc2F)c2nc(C)c(C(=O)NCC3CSCCN3)n2c1` (racemic) [Example 366, rac-8-[(2,6-difluorobenzyl)oxy]-2,6-dimethyl-N-(thiomorpholin-3-ylmethyl)imidazo[1,2-a]pyridine-3-carboxamide], for which the “MEC (minimal effective concentration)” value came to 0.10 µM.

Consider `Cc1nc2c(OCc3c(F)cccc3F)cc(Cl)cn2c1C(=O)NC1CNCc2ccccc21` (single isomer, unassigned; ent-6) [Example 108, ent-6-chloro-8-[(2,6-difluorobenzyl)oxy]-2-methyl-N-(1,2,3,4-tetrahydroisoquinolin-4-yl)imidazo[1,2-a]pyridine-3-carboxamide], for which the “MEC (minimal effective concentration)” value turned out to be 1.00 µM.

As for `Cc1cc(OCc2c(F)cccc2F)c2nc(C)c(C(=O)NCC(C)(N)CCOCc3ccccc3)n2c1` (racemic) [Example 262, rac-N-[2-Amino-4-(benzyloxy)-2-methylbutyl]-8-[(2,6-difluorobenzyl)oxy]-2,6-dimethylimidazo-[1,2-a]pyridine-3-carboxamide], the “MEC (minimal effective concentration)” value turned out to be 0.10 µM.

As for `Cc1cc(OCc2c(F)cccc2F)c2nc(C)c(C(=O)NC(CN)c3ccc4ccccc4c3)n2c1` (racemic) [Example 379, rac-N-[2-amino-1-(2-naphthyl)ethyl]-8-[(2,6-difluorobenzyl)oxy]-2,6-dimethylimidazo[1,2-a]pyridine-3-carboxamide], the “MEC (minimal effective concentration)” value is 1.00 µM.

As for `CCCC(C)(N)CNC(=O)c1c(C)nc2c(OCc3ccccc3Br)cc(C)cn12` (centres unmarked) [Example 353, N-(2-amino-2-methylpentyl)-8-[(2-bromobenzyl)oxy]-2,6-dimethylimidazo[1,2-a]pyridine-3-carboxamide], the “MEC (minimal effective concentration)” value was found to be 3.00 µM.

Take `Cc1nc2c(OCc3c(F)cccc3F)cccn2c1C(=O)NCC(N)CC(F)(F)F` (single isomer, unassigned) [Example 127, ent-N-(2-Amino-4,4,4-trifluorobutyl)-8-[(2,6-difluorobenzyl)oxy]-2-methylimidazo[1,2-a]pyridine-3-carboxamide]: the “MEC (minimal effective concentration)” value came to 1.00 µM.
